Laboratory results published in patent US8329699B2, “Pyrrolopyrazine kinase inhibitors” (Hoffmann-La Roche Inc., priority 2010, dated 2012).
Where “and” joins values, the source holds several entries; their conditions need not be identical. Equal values may be shown once.

Experiments:
[1] = target: T1, JAK3: Recombinant human kinase domain (h-jak3-sf21-c) (Homo sapiens, UniProt P52333); experiment: Determination of IC50 of Janus Kinase (JAK) inhibition, JAK3 (radioactive end-point assay with 33P-ATP); assay type: biochemical; settings: ATP 1.5 uM, peptide 50 uM, 20 minutes, room temperature
T1 construct: JAK3: Recombinant human kinase domain from Millipore (Cat # 14-629) or prepared; purchased Millipore 14-629
Source text: Determination of IC50 of Janus Kinase (JAK) Inhibition:
Enzymes and peptide substrate used are described below: • JAK1: Recombinant human kinase domain from Invitrogen (Cat # PV4774) • JAK3: Recombinant human kinase domain from Millipore (Cat # 14-629) or prepared. • JAK2: Recombinant human kinase domain from Millipore (Cat # 14-640) • Substrate: N-terminally biotinylated 14-mer peptide derived from activation loop of JAK1 with sequence of the peptide substrate: Biotin-[…]
Assay conditions used are described below: • Assay Buffer: JAK Kinase Buffer: 50 mM Hepes [pH 7.2], 10 mM MgCl2, 1 mM DTT, 1 mg/mL BSA. The assay is carried out in this buffer. • Assay Format The kinase activity of all three JAK kinases is measured using a radioactive, end-point assay and with trace amounts of^33P-ATP. The assays are carried out in 96-well polypropylene plates. Experimental Method:
All concentrations are final in the reaction mixture and all incubations are carried at room temperature. Assay steps are described below: • 1) Compounds are serially diluted in 100% DMSO typically at a 10× starting concentration of 1 mM. Final concentration of DMSO in the reaction is 10%. • 2) Compounds are preincubated with enzyme (0.5 nM JAK3 (commercially available), 0.2 nM JAK3 (prepared), 1 nM JAK2, 5 nM JAK1) for 10 minutes. • 3) Reactions are initiated by the addition of a cocktail of the two substrates (ATP and peptide premixed in the JAK Kinase Buffer). In the JAK2/JAK3 assays, ATP and the peptide are used at concentrations of 1.5 uM and 50 uM, respectively. JAK1 assay is carried out at an ATP concentration of 10 uM and a peptide concentration of 50 uM. • 4) The duration of the assay for JAK2 and JAK3 is 20 minutes. JAK1 assay is carried out for 40 minutes. With all three enzymes, reactions are terminated by the addition of 0.5M EDTA to a final concentration of 100 mM. • 5) 25 ul of terminated reactions are transferred to 150 ul of a 7.5% (v/v) slurry of streptavidin-coated sepharose beads in MgCl2- and CaCl2-free 1× Phosphate Buffered Saline containing 50 mM of EDTA in 96-well, 1.2 um MultiScreen-BV filter plates. • 6) After a 30-minute incubation, the beads are washed under vacuum with the following buffers: • a. 3 to 4 washes with 200 ul of 2M NaCl. • b. 3 to 4 washes with 200 ul of 2M NaCl plus 1% (v/v) phosphoric acid. • c. 1 wash with water. • 7) Washed plates are dried in a 60° C. oven for between 1 to 2 hours. • 8) 70 ul of Microscint 20 scintillation fluid is added to each well of filter plates and after at least 30 minutes of incubation, radioactive counts are measured in a Perkinelmer microplate scintillation counter.

T1 sequence (P52333 822-1111 limits assumed): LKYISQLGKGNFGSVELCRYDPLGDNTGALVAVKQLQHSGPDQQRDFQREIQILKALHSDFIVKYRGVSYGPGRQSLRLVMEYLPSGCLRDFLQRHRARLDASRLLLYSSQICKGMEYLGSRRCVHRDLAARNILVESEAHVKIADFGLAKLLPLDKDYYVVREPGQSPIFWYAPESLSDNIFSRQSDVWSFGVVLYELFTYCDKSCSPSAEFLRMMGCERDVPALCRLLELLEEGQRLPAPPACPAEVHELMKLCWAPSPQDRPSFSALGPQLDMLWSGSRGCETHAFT

Structure (SMILES)	IC50 [1]	melting point
O=C(NC1(C(=O)C2CC2)CCCC1)c1c[nH]c2ncc(C3CC3)nc12 [Compound I-19, 2-Cyclopropyl-5H-pyrrolo[2,3-b]pyrazine-7-carboxylic acid (1-cyclopropanecarbonyl-cyclopentyl)-amide]	1040 nM	296 to 299 °C
CS(=O)(=O)N1CCC(NC(=O)c2c[nH]c3ncc(C4CC4)nc23)C1 (stereo not drawn) [Compound I-20, 2-Cyclopropyl-5H-pyrrolo[2,3-b]pyrazine-7-carboxylic acid (1-methanesulfonyl-pyrrolidin-3-yl)-amide]	35.4 nM	> 300 °C
CS(=O)(=O)N1CCC(NC(=O)c2c[nH]c3ncc(C4CC4)nc23)CC1 [Compound I-21, 2-Cyclopropyl-5H-pyrrolo[2,3-b]pyrazine-7-carboxylic acid (1-methanesulfonyl-piperidin-4-yl)-amide]	96.2 nM	278 to 280 °C
O=C(NC1CCCCC1)c1c[nH]c2ncc(C3CC3)nc12 [Compound I-22, 2-Cyclopropyl-5H-pyrrolo[2,3-b]pyrazine-7-carboxylic acid cyclohexylamide]	5.2 nM	> 300 °C
O=C(NC1CCCC1)c1c[nH]c2ncc(C3CC3)nc12 [Compound I-23, 2-Cyclopropyl-5H-pyrrolo[2,3-b]pyrazine-7-carboxylic acid cyclopentylamide]	13.3 nM	> 300 °C
CS(=O)(=O)N1CCCC(NC(=O)c2c[nH]c3ncc(C4CC4)nc23)C1 (stereo not drawn) [Compound I-24, 2-Cyclopropyl-5H-pyrrolo[2,3-b]pyrazine-7-carboxylic acid (1-methanesulfonyl-piperidin-3-yl)-amide]	8 nM	284 to 287 °C
N#CCC1(NC(=O)c2c[nH]c3ncc(C4CC4)nc23)CCCC1 [Compound I-26, 2-Cyclopropyl-5H-pyrrolo[2,3-b]pyrazine-7-carboxylic acid (1-cyanomethyl-cyclopentyl)-amide]	26.3 nM	280 to 281.1 °C and 280 to 281 °C
CCS(=O)(=O)N1CCCC(NC(=O)c2c[nH]c3ncc(C4CC4)nc23)C1 (stereo not drawn) [Compound I-27, 2-Cyclopropyl-5H-pyrrolo[2,3-b]pyrazine-7-carboxylic acid (1-ethanesulfonyl-piperidin-3-yl)-amide]	17.3 nM	266 to 269 °C
CCCS(=O)(=O)N1CCCC(NC(=O)c2c[nH]c3ncc(C4CC4)nc23)C1 (stereo not drawn) [Compound I-28, 2-Cyclopropyl-5H-pyrrolo[2,3-b]pyrazine-7-carboxylic acid [1-(propane-1-sulfonyl)-piperidin-3-yl]-amide]	22 nM	228 to 230 °C
CC(C)S(=O)(=O)N1CCCC(NC(=O)c2c[nH]c3ncc(C4CC4)nc23)C1 (stereo not drawn) [Compound I-29, 2-Cyclopropyl-5H-pyrrolo[2,3-b]pyrazine-7-carboxylic acid [1-(propane-2-sulfonyl)-piperidin-3-yl]-amide]	73.2 nM	255 to 258 °C
CS(=O)(=O)N1CCC[C@H](NC(=O)c2c[nH]c3ncc(C4CC4)nc23)C1 [Compound I-30, 2-Cyclopropyl-5H-pyrrolo[2,3-b]pyrazine-7-carboxylic acid ((S)-1-methanesulfonyl-piperidin-3-yl)-amide]	55.5 nM	278 to 281 °C
CS(=O)(=O)N1CCC[C@@H](NC(=O)c2c[nH]c3ncc(C4CC4)nc23)C1 [Compound I-31, 2-Cyclopropyl-5H-pyrrolo[2,3-b]pyrazine-7-carboxylic acid ((R)-1-methanesulfonyl-piperidin-3-yl)-amide]	3.7 nM	277 to 280 °C
CC1(C)CCCCC1NC(=O)c1c[nH]c2ncc(C3CC3)nc12 (stereo not drawn) [Compound I-32, 2-Cyclopropyl-5H-pyrrolo[2,3-b]pyrazine-7-carboxylic acid (2,2-dimethyl-cyclohexyl)-amide]	1.1 nM	295 to 297 °C
O=C(NC1CCCCC1)c1c[nH]c2ncc(Oc3ccccc3)nc12 [Compound I-33, 2-Phenoxy-5H-pyrrolo[2,3-b]pyrazine-7-carboxylic acid cyclohexylamide]	153 nM	255 to 257 °C
O=C(NC1CCCCC1)c1c[nH]c2ncc(Oc3ccc(F)cc3F)nc12 [Compound I-34, 2-(2,4-Difluoro-phenoxy)-5H-pyrrolo[2,3-b]pyrazine-7-carboxylic acid cyclohexylamide]	424 nM	245 to 247 °C
CC(=O)N1CCC(NC(=O)c2c[nH]c3ncc(C4CC4)nc23)CC1 [Compound I-36, 2-Cyclopropyl-5H-pyrrolo[2,3-b]pyrazine-7-carboxylic acid (1-acetyl-piperidin-4-yl)-amide]	167 nM	273 to 275 °C
CC(=O)N1CCC(NC(=O)c2c[nH]c3ncc(C4CC4)nc23)C1 (stereo not drawn) [Compound I-37, 2-Cyclopropyl-5H-pyrrolo[2,3-b]pyrazine-7-carboxylic acid (1-acetyl-pyrrolidin-3-yl)-amide]	120 nM	242 to 245 °C
CC(=O)N1CCCC(NC(=O)c2c[nH]c3ncc(C4CC4)nc23)C1 (stereo not drawn) [Compound I-38, 2-Cyclopropyl-5H-pyrrolo[2,3-b]pyrazine-7-carboxylic acid (1-acetyl-piperidin-3-yl)-amide]	74.2 nM	215 to 218 °C
